Measured values taken from patent US20220169645A1, “COMPOUNDS AS BRUTON TYROSINE KINASE INHIBITORS, PREPARATION METHODS AND MEDICAL APPLICATIONS THEREOF” (Eternity Bioscience Inc., priority 2020, published 2022).

Legend:
human BTK-WT = target: T1, human BTK-WT (Homo sapiens, UniProt Q06187); assay: BTK-Y223 autophosphorylation in HEK293 cells stably expressing BTK-WT (HTRF); format: cell-based; details: 2 hours treatment
T1 construct: host or cells: HEK293 (ATCC CRL1573), lentiviral transduction, puromycin selected
Method: (§1) HEK293 cells (purchased from ATCC, CRL1573) stably expressing wild type BTK or mutant C481S BTK were generated by lentiviral transduction of constructs containing human BTK-WT or BTK-C481S mutant (Genecopoeia, Lv201 vector). Cells expressing BTK proteins were selected with puromycin treatment (1 μM). The protein expression was confirmed by western blotting of BTK and BTK-Y223 autophosphorylation. The cells were cultured in MEM medium (Sigma M2279), 10% heat-Inactivated FBS (Gibco 10100), penicillin streptomycin (Thermal Fisher 15140122), and puromycin (InvivoGen QLL-41-03). The BTK-Y223 phosphorylation was quantified using BTK phospho-Y223 kit (Cisbio 63ADK017PEG). HEK293/BTK stable cells were seeded in a 96-well plate at a density of 10 thousand cells/well in a total volume of 100 μL of media. Cells were incubated overnight in a humidified, 5% CO2 cell culture incubator at 37° C. The next day, the cells were treated with diluted compounds in a humidified, 5% CO2 cell culture incubator at 37° C. for 2 hours. The medium was removed from each well, and 50 μL of 1× lysis buffer from the assay kit was added into each well. The cells were incubated for 30 min at room temperature with shaking. Then 16 μL of lysate was transferred to a PROXIPLATE 384-plate (PerkinElmer 6008230), followed by addition of 4 μL of HTRF pre-mixed antibodies. After incubation overnight at room temperature, fluorescence signals in the plates were read on PHERAstar FSX instrument, using HTRF settings ([…]).
(§2) The relative cellular pBTK inhibition was calculated by HTRF signal change: The average of positive control well reading, and average of negative control reading were used as controls to calculate inhibition percentage.
(§3) The data was input into GraphPad Prism, using function “log(inhibitor) vs. response—Variable slope (four parameters)” to get IC50 values.

BTK-C481S mutant = target: T2, BTK-C481S mutant (Homo sapiens, UniProt Q06187, C481S); assay: BTK-Y223 autophosphorylation in HEK293 cells stably expressing BTK-C481S (HTRF); format: cell-based; details: 2 hours treatment
T2 construct: host or cells: HEK293 (ATCC CRL1573), lentiviral transduction, puromycin selected
Method: as §1, §2, §3

full-length human BTK-WT = target: T3, full-length human BTK-WT (Homo sapiens, UniProt Q06187); assay: BTK-WT kinase activity assay (ADP-Glo); format: biochemical; details: BTK kinase inhibition, 30 min preincubation, 90 min reaction
T3 construct: The full-length human BTK-WT (ABCAM205800); purchased Abcam ABCAM205800; host or cells: Baculovirus infected Sf9 cells
Method: (§4) These assays are to determine the degree of inhibition of the BTK-WT and BTK-C481S mutant kinase activity by measuring the amount of ADP produced during the enzymatic reactions. […] Compounds, BTK enzymes, ATP and substrate were all prepared in ix kinase assay buffer by diluting 5× stock of kinase assay buffer III (Signal Chem K03-09), in H2O, and adding DTT (Thermo ScientificA39255) for a final concentration of 50 μM. […] Then the plate was kept shaking for 30 min at room temperature to allow the binding of the compounds to the proteins. After the preincubation, ATP and the substrate, a total of 5 μL was added into each well. The plate was then spun down at 1000 rpm for 2 minutes and kept shaking for 90 min at room temperature. ADP detection was performed following the guidance from the ADP-Glo Kinase Assay kits (Promega V9101). Briefly, 10 μL of ADP-Glo reagent was added into each well. The plate was then spun down at 1000 rpm for 2 minutes and kept shaking at room temperature for 60 min. Twenty μL of the kinase detection solution was added into each well. The plate was incubated at room temperature for 30 min in dark. The plates were read for luminescence signals in Tecan M1000 directly following the 30 min incubation. Relative inhibition of BTK kinase activities were analyzed by calculating the luminescence signal change:
(§5) Data was input into GraphPad Prism, and the IC50 values were calculated using function “log(inhibitor) vs. response—Variable slope (four parameters)”.

BTK-C481S = target: T4, BTK-C481S (Homo sapiens, UniProt Q06187, C481S); assay: BTK-C481S kinase activity assay (ADP-Glo); format: biochemical; details: BTK kinase inhibition, 30 min preincubation, 90 min reaction
T4 construct: purchased Abcam ABCAM 204166; host or cells: Baculovirus infected Sf9 cells
Method: as §4, §5

[1] = tested on: human TMD-8 diffuse large B-cell lymphoma cells; assay: BTK-dependent cell proliferation in human TMD-8 cells (CellTiter-Glo); format: cell-based; details: TMD8, 72 h, TMD-8 DLBCL cells, 3 days, absolute IC50
Method: The human TMD-8 DLBCL cancer cells were cultured in RPMI media with high glucose and glutamine (Genesee 25-506), 20% heat-inactivated FBS (Gibco 10100), penicillin streptomycin (Thermal Fisher 15140122) and 1 mM sodium pyruvate (Thermal Fisher 11360070). TMD-8 cells were centrifuged at 300 g for 5 minutes and the cells were resuspended into fresh cell culture media. The cells were counted and made to a cell stock of 1.3 million/mL. Then 75 μL of cells were seeded into each well of a white 96-well cell culture plate (Corning 353286). A serial dilution of compounds was made and 25 μL was added to each well. The plates were incubated for 3 days in a humidified, 5% CO2 atmosphere at 37° C. Inhibition of cell growth by the compounds was determined by measuring the ATP level generated by the cells with the Cell Titer-Glo Luminescent Cell Viability Kit (Promega G7572). Assay procedures were conducted according to the protocols provided by Promega. In brief, the treated cell-culture plate and its contents were equilibrated at room temperature for approximately 30 minutes. 100 μL of CellTiter-Glo® Reagent was added into each cell-culture well, and contents were mixed for 2 minutes on an orbital shaker to induce cell lysis. The plate was incubated at room temperature for 10 minutes to stabilize luminescent signal. The resulting luminescence signal was immediately read using a TECAN plate reader. The relative cell grow inhibition was calculated by Cell Titer-Glo luminescent signal change.
The average readings of media-only wells and the readings of positive control wells (no compound treatment) were used to calculate response percentage.
The data was input into GraphPad Prism, and the curve fitting was made using function “log(inhibitor) vs. response—Variable slope (four parameters)”. The interpolation function was used to calculate absolute IC50 values.

T3 sequence (Q06187 whole entry): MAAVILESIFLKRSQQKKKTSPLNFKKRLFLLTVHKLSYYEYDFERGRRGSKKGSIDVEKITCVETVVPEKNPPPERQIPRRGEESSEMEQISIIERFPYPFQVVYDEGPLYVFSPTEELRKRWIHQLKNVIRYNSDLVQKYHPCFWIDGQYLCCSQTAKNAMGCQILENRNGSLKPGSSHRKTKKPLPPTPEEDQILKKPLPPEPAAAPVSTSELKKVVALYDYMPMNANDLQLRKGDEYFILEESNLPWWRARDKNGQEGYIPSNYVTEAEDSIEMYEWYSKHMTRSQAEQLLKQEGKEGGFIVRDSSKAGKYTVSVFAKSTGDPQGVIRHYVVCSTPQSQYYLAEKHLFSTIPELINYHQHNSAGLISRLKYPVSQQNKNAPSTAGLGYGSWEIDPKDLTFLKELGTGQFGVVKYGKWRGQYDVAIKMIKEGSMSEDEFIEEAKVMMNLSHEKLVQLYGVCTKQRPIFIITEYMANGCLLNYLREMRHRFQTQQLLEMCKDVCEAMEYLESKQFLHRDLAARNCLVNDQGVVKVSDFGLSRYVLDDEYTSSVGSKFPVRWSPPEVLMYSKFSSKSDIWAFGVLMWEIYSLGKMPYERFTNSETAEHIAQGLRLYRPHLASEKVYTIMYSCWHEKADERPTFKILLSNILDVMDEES
T1 sequence (Q06187 whole entry): as above
T2 sequence (Q06187 whole entry C481S): as the sequence (Q06187 whole entry) above, with C481S counted along it
T4 sequence (Q06187 whole entry C481S): as the sequence (Q06187 whole entry) above, with C481S counted along it

Row | IC50 (human BTK-WT) [nM] | IC50 (BTK-C481S mutant) [nM] | IC50 (full-length human BTK-WT) [nM] | IC50 (BTK-C481S) [nM] | IC50 [1] [nM] | SMILES
1 | 55 | 115 | 5.6 | 3.6 | 47 | COc1ccc(F)cc1C(=O)NCc1ccc(-n2nc(C(C)C)c(N)c2C(N)=O)cc1 [Example A1, 4-amino-1-(4-((5-fluoro-2-methoxybenzamido)methyl)phenyl)-3-isopropyl-1H-pyrazole-5-carboxamide]
2 | – | – | 11 | 11 | 240 | CCOc1cc(CNC(=O)c2cc(F)ccc2OC)ccc1-n1nc(C(C)C)c(N)c1C(N)=O [Example A5, 4-amino-1-(2-ethoxy-4-((5-fluoro-2-methoxybenzamido)methyl)phenyl)-3-isopropyl-1H-pyrazole-5-carboxamide]
3 | 84 | 170 | 14 | 14 | 140 | COc1ccccc1C(=O)NCc1ccc(-n2nc(C(C)C)c(N)c2C(N)=O)cc1 [Example A9, 4-amino-3-isopropyl-1-(4-((2-methoxybenzamido)methyl)phenyl)-1H-pyrazole-5-carboxamide]
4 | – | – | 62 | 60 | – | CC(C)c1nn(-c2ccc(CNC(=O)c3cccc4c3OCC4)cc2)c(C(N)=O)c1N [Example A10, 4-amino-1-(4-((2,3-dihydrobenzofuran-7-carboxamido)methyl)phenyl)-3-isopropyl-1H-pyrazole-5-carboxamide]
5 | – | – | 35 | 27 | – | COc1ccc(F)cc1C(=O)NCc1ccc(-n2nc(C(C)C)c(N)c2C(N)=O)c(F)c1 [Example A11, 4-amino-1-(2-fluoro-4-((5-fluoro-2-methoxybenzamido)methyl)phenyl)-3-isopropyl-1H-pyrazole-5-carboxamide]
6 | 130 | 180 | 26 | 5.8 | 160 | COc1ccc(F)cc1C(=O)NCc1ccc(-n2nc(C3CCOCC3)c(N)c2C(N)=O)cc1 [Example A12, 4-amino-1-(4-((5-fluoro-2-methoxybenzamido)methyl)phenyl)-3-(tetrahydro-2H-pyran-4-yl)-1H-pyrazole-5-carboxamide]
7 | 57 | 120 | 4.4 | 2.7 | 95 | COc1ccc(F)cc1C(=O)NCc1ccc(-n2nc(C3CCCOC3)c(N)c2C(N)=O)cc1 (stereo not drawn) [Example A13, 4-amino-1-(4-((5-fluoro-2-methoxybenzamido)methyl)phenyl)-3-(tetrahydro-2H-pyran-3-yl)-1H-pyrazole-5-carboxamide]
8 | 81 | 210 | 7.9 | 3.1 | 95 | COc1ccc(F)cc1C(=O)NCc1ccc(-n2nc(-c3cccs3)c(N)c2C(N)=O)cc1 [Example A14, 4-amino-1-(4-((5-fluoro-2-methoxybenzamido)methyl)phenyl)-3-(thiophen-2-yl)-1H-pyrazole-5-carboxamide]
9 | 27 | 84 | 3.7 | 4.2 | 29 | COc1ccc(F)cc1C(=O)NCc1ccc(-n2nc(C3CCCC3)c(N)c2C(N)=O)cc1 [Example A15, 4-amino-3-cyclopentyl-1-(4-((5-fluoro-2-methoxybenzamido)methyl)phenyl)-1H-pyrazole-5-carboxamide]
10 | 120 | 230 | 15 | 11 | 120 | COc1ccc(F)cc1C(=O)NCc1ccc(-n2nc(C3CCOC3)c(N)c2C(N)=O)cc1 (stereo not drawn) [Example A16, 4-amino-1-(4-((5-fluoro-2-methoxybenzamido)methyl)phenyl)-3-(tetrahydrofuran-3-yl)-1H-pyrazole-5-carboxamide]
11 | – | – | 87 | 93 | – | COc1ccc(F)cc1C(=O)NCc1ccc(-n2nc(N3CCOCC3)c(N)c2C(N)=O)cc1 [Example A17, 4-amino-1-(4-((5-fluoro-2-methoxybenzamido)methyl)phenyl)-3-morpholino-1H-pyrazole-5-carboxamide]
12 | – | – | 63 | 68 | – | CCOc1cc(CNC(=O)c2cc(F)ccc2OC)cc(F)c1-n1nc(C(C)C)c(N)c1C(N)=O [Example A19, 4-amino-1-(2-ethoxy-6-fluoro-4-((5-fluoro-2-methoxybenzamido)methyl)phenyl)-3-isopropyl-1H-pyrazole-5-carboxamide]
13 | 74 | 120 | 8.1 | 8 | 110 | COc1ccc(F)cc1C(=O)NCc1ccc(-n2nc(C3CCC(F)(F)CC3)c(N)c2C(N)=O)cc1 [Example A22, 4-amino-3-(4,4-difluorocyclohexyl)-1-(4-((5-fluoro-2-methoxybenzamido)methyl)phenyl)-1H-pyrazole-5-carboxamide]
